Results taken from US12201592B2, “Combinations of IRS/STAT3 dual modulators and anti-cancer agents for treating cancer” (TYRNOVO LTD., priority 2015, dated 2025).
Where two headings read alike, the source gives them in different places.

Experiments:
Mel1617-BR = assay: Cell proliferation and viability, methylene-blue staining; format: cell-based; conditions: Homo sapiens, 72 h, melanoma, 3 days exposure
Experimental: (§1) All melanoma cells used and discussed in FIGS. 6-9 and table 1 are from human origin and bearing the mutated BRAF^600K/E.
(§2) Cells were grown in complete medium and treated with inhibitors one day following seeding. 72 hours later, the surviving cells were quantified by methylene blue staining or by WST-1 staining for nonadherent cells (Roche).
(§3) Cells were plated in 96-well plates in 5-10% FCS in medium; a day later exposed to various concentrations of compound A, compound D or OSI-906 and 3 days later stained with methylene-blue and the relative cell number was quantified.

Mel1617-Pa = assay: as above; format: cell-based; conditions: Homo sapiens, 72 h, melanoma, 3 days exposure
Experimental: as §1, §2, §3

[1] = tested on: Uteral AdenoSarcoma biopsy; assay: PDX efficacy study with Afinitor (Examples 4 and 5); conditions: phase I
Experimental: Treatments and Procedures
Treatment groups included: • 1. Control: 20% HPbCD 50 ul IP, qod (6 mice). • 2. […] Afinitor 5 mg/kg PO, qod (15 mice). • 4. Afinitor 5 mg/kg PO (qod)+Compound D 70 mg/kg IV (qod), 6 mice. Afinitor was administered ˜4 hr following Compound D.
All treatments were initiated simultaneously on day0.
The length (l) and the width (w) of the tumors were measured every other day and the volumes of the tumors were calculated as follows: v=lw^2/2.
Following treatments described in phase I (example 4), the mice whose tumors reached the end point were sacrificed, and the following treatments were continued.
• 1. The Afinitor-responder group (group A, open squares) was administered with Afinitor 5 mg/kg PO, qd (8 mice). • 2. The combined treatment group (open circles) continued to get the Afinitor 5 mg/kg PO (qod)+Compound D 70 mg/kg IV (qod) treatment (6 mice). Afinitor was administered ˜4 hr following Compound D. Phase III:
The group was divided to two groups of 4 mice each which received the following treatments on day6 onwards: • The first continued to get Afinitor 5 mg/kg PO, qd (4 mice) • and the second got Afinitor 5 mg/kg PO (qod)+Compound D 70 mg/kg IV (qod) combined treatment (4 mice). Afinitor was administered ˜4 hr following Compound D.

HNSCC tumor biopsy = assay: PDX efficacy study, tumor recurrence after Cetuximab±Afatinib (Example 7); format: in vivo, NodScid mice; conditions: 9 days of treatment; start ~113 mm^3
Experimental: Experimental system: Patient-derived xenograft (PDX) of HNSCC tumor biopsy subcutaneous implanted into NodScid mice.
• Implantation of HNSCC tumor biopsy graft (P6) into NodScid mice for efficacy study: Few months following implantation of frozen HNSCC tumor biopsy graft (P1) in mice, tumor cells (P6) were injected into NodScid mice (generated by in-house breeding), using the same procedure described for implantation of P1. The original biopsy is the same as described above and the P indicates passages (implantation number in mice). • Onset of tumor growth (palpable tumor mass) was detected four days following cell injection. Five days later, treatments initiated in mice which developed tumors sized around 113 mm^3. […] Treatments and Procedures
Treatment groups included: • 1. Vehicle-control: Vehicle (0.5% Hydroxymethyl-cellulose, 0.4% Tween-80) 200 μl PO (5 times/week, qd). • 2. Compound D 70 mg/kg in HPbCD, IV (3 times/week, qod). • 3.
(§6) The length (l) and the width (w) of the tumors were measured 2-4 times a week and the volumes of the tumors were calculated as follows: v=lw^2/2.

[2] = tested on: phospho-Y705 Stat3 (pSTAT3) in melanoma A375 cells; assay: Immunoblot of Stat3 Y705-phosphorylation in intact cells; format: cell-based, human; conditions: Homo sapiens, A-375
Experimental: FIGS. 6A-6E. […] A. Human melanoma A375 cells were treated with the indicated concentrations of compounds A or D for 1.3 and 4.5 hr. Cells were lysed and immunoblotted with antibodies against phospho-Y705 Stat3 (pSTAT3) and Stat3. […] B. Cells were treated with 2 μM Compound A and lysed following the indicated times. C. A375 cells were treated with compound D for 4 hr, then washed with medium several times and lysed after 4, 24 and 48 hr of incubation without inhibitors.
(§4) • Cells were treated as indicated in FIGS. 6-9 and the corresponding figure legends, following overnight serum-starvation (unless indicated differently). When cells were treated with both PLX4032 and compounds A or D, PLX4032 was added 3-4 hr following the compounds. • Cells were lysed with boiling sample buffer (10% glycerol, 50 mmol/L Tris-HCl, pH 6.8, 3% SDS, and 5% 2-mercaptoethanol). Western blot analysis was conducted in 8% SDS-PAGE, using antibodies described below. • Aliquots of cell extracts containing equal amounts of protein were resolved by 8% SDS/PAGE and electroblotted onto nitrocellulose filters. The membranes were blocked with low-fat milk diluted 1:20 in TBST (NaCl/Tris containing 0.2% Tween-20) for 0.5 hr, incubated with Rabbit anti-phosphoY705-Stat3 antibody (Cell signaling cat #9131), Mouse anti-ERK-diphosphorylated-YT (Sigma Aldrich cat #M8159) or anti-PARP antibodies overnight at 4 C in 5% BSA in TBST containing 0.05% azid, washed extensively with TBST and then incubated with horseradish peroxidase-conjugated secondary antibodies for 45 min at room temperature in 5% BSA in TB ST. • Immunoreactive bands were visualized using enhanced chemiluminescence. Membranes were re-blotted with Mouse anti-Stat3 antibody (Transduction labs cat #21320) or with Rabbit anti AKT1/2 (Santa cruz cat #sc-8312) or Anti-Actin as described above. IV. Chemotaxis of Peripheral Blood Mononuclear Cells (PBMCs)

[3] = tested on: colon metastatic carcinoma biopsy; assay: PDX efficacy study with Cetuximab and FOLFIRI (Example 12); format: in vivo, NodScid mice; conditions: start ~110 mm^3; 14 days
Experimental: Experimental system: Patient-derived xenograft (PDX) of human primary colon metastatic carcinoma biopsy subcutaneous implanted into NodScid mice.
The length (l) and the width (w) of the tumors were measured 4 times a week and the volume of the tumors were calculated as follows: v=lw^2/2.

[4] = tested on: Squamous Cell carcinoma of Head&Neck (SCCHN) tumor biopsy; assay: PDX efficacy study, acquired resistance to Erlotinib (Example 1); conditions: start ~80 mm^3; Erlotinib 100 mg/kg PO, Compound D 70 mg/kg IV; two weeks
HepG2 = assay: Cell proliferation and viability, methylene-blue staining; format: cell-based; conditions: Homo sapiens, 72 h; HepG2, hepatocarcinoma; 3 days exposure
Experimental: as §2, §3

PC3 = assay: as above; format: cell-based; conditions: Homo sapiens, PC-3, 72 h; PC3, prostate cancer; 3 days exposure
Experimental: as §2, §3

[5] = tested on: pStat3 in 451-LU-BR, Mel1617-BR and patient cells M2068, M571; assay: Immunoblot of pStat3 in BRAFi-resistant melanoma cells; format: cell-based, human
Experimental: FIGS. 8A-8D. […] FIG. 8C. […] FIG. 8D. Cells of various cancer types were treated with compound D for 4 hr in serum-free medium, and 20 hr in medium with or without 10% serum. Asterisks indicate 10 μM concentration for RPMI8226 and HepG2 cells.
as §4

[6] = tested on: Uteral AdenoSarcoma biopsy; assay: PDX efficacy study with Afinitor, repeat (Example 5A); format: in vivo, NodScid mice; conditions: Afinitor 5 mg/kg PO, Compound D 70 mg/kg IV
Experimental: The experiment described in Example 4 was repeated in purchased mice from Harlan.
• 1. […] Afinitor 5 mg/kg PO, 4 times a week (17 mice). • 4.

[7] = tested on: pStat3 in A375, 451-Lu, Mel1617 cells; assay: Immunoblot of basal and PLX4032-induced pStat3 in PLX4032-sensitive melanoma cells; format: cell-based, human; conditions: PLX4032 1 μM added 3-4 hr after the compounds (FIG. 7C-E, 8A)
Experimental: FIGS. 7A-7E. […] FIG. 7A. […] FIG. 7B. […] Cells from patients were grown in complete medium and immunoblotted as described above. […] Compounds A/D block the basal and the PLX4032-induced pStat3. Treatment of PLX4032-sensitive human melanoma A375 (C), 451-Lu (D) or Mel1617 (E) cells with 1 μM PLX4032 for 18-24 hr induces a dramatic increase in pStat3. Compounds A (FIG. 7C, D) or D (FIG. 7E) block both the basal and the PLX4032-induced pStat3. OSI-906, an ATP-competitive inhibitor of IGF1R, has no effect on pStat3.
as §4

A375 melanoma cells = assay: Apoptosis after short exposure and wash-out; format: cell-based, human; conditions: 4 hr exposure, washed; 24 and 48 hr later (FIG. 6C)
Experimental: as §4, with “Chemotaxis of Peripheral Blood Mononuclear Cells (PBMCs)” left out

MM1S = assay: Cell proliferation and viability; format: cell-based; conditions: Homo sapiens, MM1.S, 72 h, multiple myeloma, 3 days exposure
Experimental: as §2, §3

HCT15 = assay: Cell proliferation and viability, methylene-blue staining; format: cell-based; conditions: Homo sapiens, HCT-15, 72 h; HCT15, colon cancer; 3 days exposure
Experimental: as §3, with “Cells were grown in complete medium and treated with inhibitors one day following seeding. 72 hours later, the surviving cells were quantified by methylene blue staining or by WST-1 staining for nonadherent cells (Roche). Cells” for “Cells”

451Lu-Pa = assay: as above; format: cell-based; conditions: Homo sapiens, 72 h, melanoma, 3 days exposure
Experimental: (§5) All cell lines were obtained from the American Type Culture Collection. YUMAC, YURIF, YUSIK (all human melanoma, kindly provided by Prof. Ruth Halaban, Yale University, New Haven, Conn.) were cultured in OptiMEM containing 5% FCS. M571, M2068, M560n (all human melanoma, kindly provided by Dr. Michal Lotem, Hadassah Hospital, Jerusalem, Israel) were maintained in RPMI, DMEM and F12 (1:3:1) containing 10% FCS. 451-Lu (human melanoma) and 451-Lu-BR (PLX4032-resistant melanoma; ref. 32) were maintained in RPMI containing 5% FCS (media for resistant lines contained […] PLX4032). All media were supplemented with 100 U/mL penicillin and […] and all cells were grown at 37° C./5% CO2.
as §1, §2, §3

451Lu-BR = assay: as above; format: cell-based; conditions: Homo sapiens, 72 h, melanoma, 3 days exposure
Experimental: as §5, §1, §2, §3

[8] = tested on: Adenoid Cyctic Carcinoma tumor biopsy; assay: PDX efficacy study with Trametinib (Example 9); format: in vivo, NodScid mice; conditions: day0-day13; start ~65 mm^3; Trametinib 1 mg/kg PO, Compound D 70 mg/kg IV
Text: Experimental system: Patient-derived xenograft (PDX) of Adenoid Cyctic Carcinoma tumor biopsy subcutaneous implanted into NodScid mice.
• Biopsy: Fresh human primary Adenoid Cyctic Carcinoma tumor biopsy. […] The mice were randomly divided into treatment groups including 5 animals/group. The vehicle-treated group included 4 mice. II. Treatments and Procedures
Treatment groups included: • 1. Vehicle-control: vehicle of Trametinib (5% Propylene Glycol, 0.5% Tween-80, 30% PEG 400 in Sterile DDW) 200 μl PO (5 times/week, qd). • 2. […] Trametinib 1 mg/kg PO (5 times/week, qd). • 4.
as §6

[9] = tested on: tumor pieces of pancreatic cancer liver metastasis PDX; assay: Culture of tumor pieces excised at the end of the experiment (Example 10); format: cell-based; conditions: three tumors per group; fixed and stained nine days later
Experimental: At the end of the experiment, tumor pieces, similar in size, from three tumors per group were cultured in separate plates to test their viability and proliferative activity.

[10] = tested on: pancreatic cancer metastasis from the liver; assay: PDX efficacy study with Gemcitabine (Example 10); format: in vivo, NodScid mice
Experimental: Experimental system: Patient-derived xenograft (PDX) of a biopsy of pancreatic cancer metastasis from the liver, subcutaneous implanted into NodScid mice.
• Implantation of pancreatic cancer metastasis from the liver RA_160 tumor biopsy graft (P5) into NodScid mice for efficacy study: Several weeks following implantation of pancreatic cancer liver metastasis biopsy graft in mice, tumor cells (P5) were injected into NodScid mice (generated by in-house breeding), using the same procedure described above. • Onset of tumor growth (palpable tumor mass) was detected ten days following cell injection. A week later (on da0), 19 mice with average tumor size of 90 mm^3 initiated treatments with Gemcitabine 25 mg/kg IP twice a week for 35 days. […] On day21 the average tumor size in Gemcitabine-treated group was ˜5 mm^3 as compared to 1400 mm^3 in the control group. • 42 days following initiation of treatment with Gemcitabine resistance developed and regressed tumors progressed. Four days later 16 mice of the Gemcitabine-treated group with average tumor volume of ˜110 mm^3 were divided to two groups as follows. II. Treatments
Treatment groups, following resistance to Gemcitabine has been acquired, included: • 1. Gemcitabine 25 mg/kg IP twice a week • 2. Gemcitabine 25 mg/kg IP+Compound D 70 mg/kg IV, twice a week.

Oc1cc(CNC(=S)/C=C/c2ccc(O)c(O)c2Br)cc(O)c1O [Compound D]
IC50 (Mel1617-BR): 300 nM
IC50 (Mel1617-Pa): 200 nM
responder mice [1]: none of the mice responded
effect on tumor growth ([1]; four days, Afinitor 5 mg/kg PO, Compound D 70 mg/kg IV): no significant effect on tumor growth
tumor response while on treatment (HNSCC tumor biopsy): aggressively progressed
IC50 ([2]; A375 cells, 1.3 hr post-treatment (FIG. 6A), read-out: IC50 of inhibition of Stat3 phosphorylation (pStat3)): ~2000 nM
IC50 ([2]; A375 cells, 3 hr later (4.5 hr treatment, FIG. 6A), read-out: IC50 of inhibition of Stat3 phosphorylation (pStat3)): < 1000 nM
IC50 ([2]; FIG. 6D, read-out: IC50 of dose-dependent inhibition of pStat3): < 1000 nM
effect on tumor growth [3]: No effect on tumor growth
tumor response (tumor volume) [4]: has not responded
IC50 (HepG2): 700 nM
IC50 (PC3): 500 nM
effect on Stat3 phosphorylation in PLX4032-resistant melanoma cells ([5]; 451-LU-BR, Mel1617-BR, patient cells M2068 and M571 (FIG. 8A-C)): block Stat3 phosphorylation completely
relative activity on pStat3 in melanoma cells from patients who acquired resistance to PLX4032 ([5]; FIG. 8C): better activity of compound D compared with compound A
effect on tumor growth [6]: no effect on tumor growth
effect on basal and PLX4032-induced pStat3 levels [7]: block both the basal and the PLX4032-induced levels of pStat3
cell apoptosis after short exposure (A375 melanoma cells): sufficient to induce cell apoptosis 24 and 48 hr later
IC50 (MM1S): 200 nM
IC50 (HCT15): 800 nM
IC50 (451Lu-Pa): 300 nM
IC50 (451Lu-BR): 600 nM
tumor response, first phase [8]: moderate tumor growth inhibition

Nc1ccn([C@@H]2O[C@H](CO)[C@@H](O)C2(F)F)c(=O)n1 [Gemcitabine]
proliferative activity of cultured tumor pieces [9]: massive proliferation
average tumor size on day21 ([10]; Gemcitabine 25 mg/kg IP twice a week, control 1400 mm^3): ~5 mm^3
tumor response on day11 ([10]; Gemcitabine 25 mg/kg IP twice a week, start 90 mm^3): all tumors in Gemcitabine-treated mice regressed
response of Gemcitabine-resistant tumors ([10]; start ~110 mm^3, after resistance was acquired): all tumors treated with Gemcitabine progressed
time from initiation of treatment until resistance developed ([10]; treated for 35 days): 42 days
